Experimental data reported in publication PMC6271893, “In Vitro Antioxidant and Cytotoxic Activity of Some Synthetic Riparin-Derived Compounds” (Molecules, 2014).
Converted amounts (≈) assume the structure as drawn. Marks after values point to notes of the source that are not given here.

Tests used:
[1] = tested on: larynx carcinoma cell line HEP-2; set-up: method as in PMID 23569415; settings: cited from earlier work
[2] = tested on: HL-60 (pro-myelocytic leukemia); assay: Cytotoxicity against tumor cell lines (MTT); type: cell-based; settings: Homo sapiens, 72 h, 95% confidence interval in brackets, read-out: IC50 values and confidence intervals, HL-60
Description: (§1) Cells were maintained at 37 °C with 5% CO2 in RPMI 1640 (Himedia^TM, Mumbai, India) or DMEM medium (Gibco^TM, Grand Island, NY, USA) supplemented with 2 mM glutamine, 100 U/mL penicillin, 100 μg/mL streptomycin. The antiproliferative activities of riparins were evaluated in the following human cancer cells lineage: HL-60 (pro-myelocytic leukemia), NCIH-292 (lung carcinoma), and HEP-2 (laryngeal carcinoma) obtained from the Rio de Janeiro Cell Bank (RJ-Brazil). For all experiments, 100 µL of tumor cells were plated in 96-well plates (6 × 10^4 cells/cm^2 for adherent cells or 9 × 10^4 cells/cm^2 for leukemia). Tested compounds (0.1–25 μg/mL) dissolved in 1% DMSO (100 µL) were added to each well and incubated for 72 h. Control groups received the same amount of DMSO. After 69 h of treatment, 25 μL of MTT (5 mg/mL) were added. Three hours later, the MTT formazan product was dissolved in 100 μL of DMSO, and absorbance was measured at 595 nm using a multiplate reader (Thermo Plate®, TP Reader, São Paulo, SP, Brasil).
(§2) The obtained data were evaluated by one-way analysis of variance (ANOVA) followed by a Student Newman Keuls post hoc test. The data concerning release percentage of cytoplasmatic enzyme lactate dehydrogenase (LDH) were reported by mean ± standard deviation and evaluated by one-way analysis of variance (ANOVA) followed by a Tukey post hoc test. In all cases differences were considered significant if p < 0.05, the means and respective standard errors were analyzed in the Graph Pad Prism version 5.0 for Windows software (GraphPad Software Incorporated, San Diego, CA, USA).

[3] = tested on: NCIH-292 (lung carcinoma); assay: Cytotoxicity against tumor cell lines (MTT); type: cell-based; settings: Homo sapiens, NCI-H292, 72 h, 95% confidence interval in brackets, read-out: IC50 values and confidence intervals, NCIH-292
Description: as §1, §2

[4] = tested on: HEP-2 (laryngeal carcinoma); assay: Cytotoxicity against tumor cell lines (MTT); type: cell-based; settings: Homo sapiens, 72 h, 95% confidence interval in brackets, read-out: IC50 values and confidence intervals, HEP-2
Description: as §1, §2

[5] = tested on: tumor cells lines (leukemia and lung and laryngeal carcinoma); assay: Cytotoxicity on tumor cell lines, summary statements over the lines (MTT); type: cell-based; settings: Homo sapiens; for IC50: leukemia and lung and laryngeal carcinoma, read-out: IC50 values on neoplastic cells (range over cell lines); for inhibition at 25 µg/mL: tumor cells lines, cytotoxicity samples tested at 25 µg/mL, read-out: cell growth inhibition rates
Description: (§3) For the in vitro antioxidant tests the samples were emulsified in 0.05% Tween 80 dissolved in saline 0.9% (used as the vehicle) and tested at concentrations of 1, 5, 10, 25 and 100 µg/mL. The samples for the cytotoxicity tests were diluted in pure and sterile DMSO and tested at concentrations of 25 µg/mL.
as §1

[6] = Scavenging activity of nitric oxide (nitrite production induced by SNP, Griess reaction); settings: for IC50 Nitrite: nitrite formation
Description: as §3
Nitric oxide was generated from spontaneous decomposition of sodium nitroprusside in 20 mM phosphate buffer (pH 7.4). Once generated, NO interacts with oxygen to produce nitrite ions, which are measured by the Griess reaction. The reaction mixture (1 mL) containing 10 mM sodium nitroprusside (SNP) in phosphate buffer and the riparins at various concentrations of 1, 5, 10, 25 and 100 µg/mL were incubated at 37 °C for 1 h. A 0.5 mL aliquot was taken and homogenized with 0.5 mL Griess reagent. The absorbance of chromophore was measured at 540 nm. Percent inhibition of generated nitric oxide was measured by comparing the absorbance values of negative controls (only 10 mM sodium nitroprusside and vehicle) to assay preparations. Results were expressed as percentage of nitrite formed by SNP alone.

[7] = Antioxidant potential against the formation of TBARS (AAPH-induced lipid peroxidation of egg yolk homogenate); settings: for IC50 TBARS: TBARS production
Description: as §3
The TBARS assay was employed to quantify lipid peroxidation and an adapted TBARS method was used to measure the antioxidant capacity of the riparins (Rip-A, -B, -C, -D, -E and -F) using egg yolk homogenate as lipid rich substrate. Egg yolk was homogenized (1% w/v) in 20 mM phosphate buffer (pH 7.4), 1 mL of homogenate was sonicated and then homogenized with 0.1 mL of the samples at concentrations of 1, 5, 10, 25 and 100 µg/mL. Lipid peroxidation was induced by the addition of 0.1 mL of 2,2'-azobis(2-methylpropionamidine) dihydrochloride solution (AAPH; 0.12 M). Control was evaluated with only the vehicle. Reactions were carried out for 15 minutes at 37 °C. After cooling, samples (0.5 mL) were centrifuged with 0.5 mL of trichloroacetic acid (15%) at 1,200 ×g for 10 min. An aliquot of 0.5 mL from supernatant was mixed with 0.5 mL TBA (0.67%) and heated at 95 °C for 30 min. After cooling, sample absorbance was measured using a spectrophotometer at 532 nm. The results were expressed as percentage of TBARS formed by AAPH alone (induced control).

[8] = Hydroxyl radical scavenging activity (2-deoxyribose degradation, Fenton reaction); settings: for IC50 OH radical: hydroxyl radical content
Description: as §3
The formation of OH radicals from Fenton reagents was quantified using the condensation product of the 2-deoxyribose oxidative degradation product, malonaldehyde, with 2-thiobarbituric acid (TBA). Briefly, typical reactions were started by the addition of Fe^2+ (FeSO4 6 mM final concentration) to solutions containing 5 mM 2-deoxyribose, 100 mM H2O2 and 20 mM phosphate buffer (pH 7.2). In order to determine the antioxidant activity of the riparins against the hydroxyl radical, individual tests were performed on each one of the six substances, in which different concentrations of the riparins were added to the system before Fe^2+ addition (Rip-A; Rip-B; Rip-C; Rip-D; Rip-E and Rip-F). Reactions were carried out for 15 min at room temperature and were quenched by the addition of phosphoric acid 4% (v/v), followed by TBA 1% (thiobarbituric acid, v/v in 50 μL NaOH). The solutions were boiled for 15 min to 95 °C and then cooled at room temperature. The absorbance was measured at 532 nm and the results were expressed as MDA equivalents formed by Fe^2+ and H2O2 [25].

[9] = tested on: murine peritoneal macrophages RAW 264.7; assay: Cytotoxicity assay on RAW 264.7 (LDH release); type: cell-based; settings: 25 µg/mL, RAW 264.7
Description: Murine peritoneal macrophages of the cell line RAW 264.7 were obtained from the American Type Culture Collection (ATCC, Rockville, MD, USA), and cultured at 37 °C with CO2 at 5% in DMEM-F12 supplemented with 10% fetal bovine serum (FBS; Hyclone^TM, Logan, UT, USA) and gentamicin (50 μg/mL). RAW 264.7 cells (5 × 10^5 cells/mL) were cultured and incubated for 24 h with the riparins A, B, C, D, E and F at the final concentration of 25 µg/mL […]. The cytotoxicity assay was performed by LDH assay. The release of LDH (cytoplasmic lactate dehydrogenase enzyme) was determined using 50 μL of culture supernatant with 100 μL of LDH substrate plus and 5 μL ferric alum (5 mg/mL), at 37 °C for 3 min. Then, 100 μL of the NAD solution and phenazine methosulphate were added to the mixture, maintaining the temperature at 37 °C for 5 min (Labrax Commercial Kit, Clontech, Palo Alto, CA, USA). LDH is an oxidoreductase which catalyzes the interconversion of lactate and pyruvate and, for being a stable cytosolic enzyme, after damage to cell membrane it is released in the cellular environment and because of this LDH is an indirect indicator of cytotoxicity. LDH concentration was determined by colorimetry at 492 nm. The specific release of LDH was calculated as percentage of the controls (not treated cells as negative control and cells treated with 1%Triton X-100 as positive control).
as §2

## CC[C@H]1CC2CN3CCc4c([nH]c5ccc(OC)cc45)[C@](C(=O)OC)(C2)[C@H]13 (stereo in doubt) [voacangine]
[1]
  IC50 on HEP-2: 159.33 µg/mL (≈ 432 µM)

## CC[C@H]1C[C@@H]2CN3CCc4c([nH]c5ccccc45)[C@](C(=O)OC)(C2)[C@H]13 [Coronaridine, coronaridine]
[1]
  IC50 on HEP-2: 54.47 µg/mL (≈ 161 µM)

## COc1ccc(CCNC(=O)c2ccccc2O)cc1OC [Rip-D, 2-Hydroxy-N-[2-(3,4-methoxyphenyl)ethyl]benzamide]
[2]
  IC50: 9 µg/mL (≈ 29.9 µM)
[3]
  IC50: > 25 µg/mL
[4]
  IC50: 7.3 µg/mL (≈ 24.2 µM)
other
  melting point: 96 °C
[5]
  IC50: 1.9 to 11.4 µg/mL (≈ 6.31 to 37.8 µM)
  inhibition at 25 µg/mL: > 70%
[6]; 1 μg/mL
  Nitrite Production (% induced by SNP): 72.6 ± 1.81 ^a %
[6]; 5 μg/mL
  Nitrite Production (% induced by SNP): 32.2 ± 1.45 ^a %
[6]; 10 μg/mL
  Nitrite Production (% induced by SNP): 28.9 ± 1.74 ^a %
[6]; 25 μg/mL
  Nitrite Production (% induced by SNP): 24.7 ± 1.77 ^a %
[6]; 100 μg/mL
  Nitrite Production (% induced by SNP): 17.3 ± 2.38 ^a %
[6]
  IC50 Nitrite: 1.270 µg/mL (≈ 4.21 µM)
[7]; 1 μg/mL
  TBARS levels (% AAPH): 41.2 ± 0.96 ^a %
[7]; 5 μg/mL
  TBARS levels (% AAPH): 39.4 ± 0.71 ^a %
[7]; 10 μg/mL
  TBARS levels (% AAPH): 37.3 ± 0.68 ^a %
[7]; 25 μg/mL
  TBARS levels (% AAPH): 34.4 ± 0.76 ^a %
[7]; 100 μg/mL
  TBARS levels (% AAPH): 25.6 ± 0.66 ^a %
[7]
  IC50 TBARS: 0.9958 µg/mL (≈ 3.3 µM)
[8]; 1 μg/mL
  2-Deoxyribose degradation (%): 93.5 ± 1.17 ^a %
[8]; 5 μg/mL
  2-Deoxyribose degradation (%): 67.9 ± 1.74 ^a %
[8]; 10 μg/mL
  2-Deoxyribose degradation (%): 56.9 ± 0.82 ^a %
[8]; 25 μg/mL
  2-Deoxyribose degradation (%): 51.9 ± 1.27 ^a %
[8]; 100 μg/mL
  2-Deoxyribose degradation (%): 47.3 ± 0.88 ^a %
[8]
  IC50 OH radical: 1.358 µg/mL (≈ 4.51 µM)
[9]
  LDH % Release: 83.12%
[9]; listed as riparin D
  LDH % Release: greater than 80%

## COc1ccc(CCNC(=O)c2c(O)cccc2O)cc1OC [Rip-F, N-[2-(3,4-Dimethoxyphenyl)ethyl]-2,6-dihydroxybenzamide]
[2]
  IC50: 11.4 µg/mL (≈ 35.9 µM)
[3]
  IC50: 10.3 µg/mL (≈ 32.5 µM)
[4]
  IC50: 7.8 µg/mL (≈ 24.6 µM)
other
  melting point: 167 °C
[5]
  IC50: 1.9 to 11.4 µg/mL (≈ 5.99 to 35.9 µM)
  inhibition at 25 µg/mL: > 70%
[6]; 1 μg/mL
  Nitrite Production (% induced by SNP): 74.9 ± 2.27 ^a %
[6]; 5 μg/mL
  Nitrite Production (% induced by SNP): 35.3 ± 0.96 ^a %
[6]; 10 μg/mL
  Nitrite Production (% induced by SNP): 21.5 ± 0.98 ^a %
[6]; 25 μg/mL
  Nitrite Production (% induced by SNP): 19.9 ± 0.71 ^a %
[6]; 100 μg/mL
  Nitrite Production (% induced by SNP): 17.3 ± 0.22 ^a %
[6]
  IC50 Nitrite: 0.5817 µg/mL (≈ 1.83 µM)
[7]; 1 μg/mL
  TBARS levels (% AAPH): 38.8 ± 0.99 ^a %
[7]; 5 μg/mL
  TBARS levels (% AAPH): 35.9 ± 0.41 ^a %
[7]; 10 μg/mL
  TBARS levels (% AAPH): 35.2 ± 0.44 ^a %
[7]; 25 μg/mL
  TBARS levels (% AAPH): 34.6 ± 0.49 ^a %
[7]; 100 μg/mL
  TBARS levels (% AAPH): 30.3 ± 0.47 ^a %
[7]
  IC50 TBARS: 0.6231 µg/mL (≈ 1.96 µM)
[8]; 1 μg/mL
  2-Deoxyribose degradation (%): 83.3 ± 2.13 ^a %
[8]; 5 μg/mL
  2-Deoxyribose degradation (%): 61.5 ± 0.98 ^a %
[8]; 10 μg/mL
  2-Deoxyribose degradation (%): 57.6 ± 1.47 ^a %
[8]; 25 μg/mL
  2-Deoxyribose degradation (%): 55.1 ± 1.78 ^a %
[8]; 100 μg/mL
  2-Deoxyribose degradation (%): 50.9 ± 2.33 ^a %
[8]
  IC50 OH radical: 1.016 µg/mL (≈ 3.2 µM)
[9]
  LDH % Release: 91.01%
[9]; listed as riparin F
  LDH % Release: greater than 80%

## heyneanine
[1]
  IC50 on HEP-2: 689.45 µg/mL
